# Results as given in US9695154B2, “Heteroaryl inhibitors of sumo activating enzyme” (MILLENNIUM PHARMACEUTICALS, INC., priority 2013, dated 2017).
# Molecular target: T1, recombinant human SAE enzyme (Homo sapiens, UniProt Q9UBT2)
# T1 sequence (Q9UBT2 1-640): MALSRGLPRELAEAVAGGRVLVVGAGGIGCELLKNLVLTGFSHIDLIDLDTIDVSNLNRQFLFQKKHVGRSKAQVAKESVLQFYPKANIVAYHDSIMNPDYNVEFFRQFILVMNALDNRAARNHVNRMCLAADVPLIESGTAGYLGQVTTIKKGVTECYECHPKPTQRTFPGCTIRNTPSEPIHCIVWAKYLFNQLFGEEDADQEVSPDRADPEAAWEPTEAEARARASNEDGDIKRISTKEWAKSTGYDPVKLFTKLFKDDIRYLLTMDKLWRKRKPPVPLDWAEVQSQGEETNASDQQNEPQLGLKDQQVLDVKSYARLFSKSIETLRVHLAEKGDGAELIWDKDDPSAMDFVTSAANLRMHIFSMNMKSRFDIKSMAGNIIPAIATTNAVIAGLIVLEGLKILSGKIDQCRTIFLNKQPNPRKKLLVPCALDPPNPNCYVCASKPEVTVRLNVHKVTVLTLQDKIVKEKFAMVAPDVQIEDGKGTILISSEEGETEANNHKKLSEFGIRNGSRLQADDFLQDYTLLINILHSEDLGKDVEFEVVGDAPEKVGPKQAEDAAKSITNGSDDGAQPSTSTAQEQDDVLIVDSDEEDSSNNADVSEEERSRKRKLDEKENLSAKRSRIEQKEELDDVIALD
# T1 sequence (Q9UBE0 1-346 partner): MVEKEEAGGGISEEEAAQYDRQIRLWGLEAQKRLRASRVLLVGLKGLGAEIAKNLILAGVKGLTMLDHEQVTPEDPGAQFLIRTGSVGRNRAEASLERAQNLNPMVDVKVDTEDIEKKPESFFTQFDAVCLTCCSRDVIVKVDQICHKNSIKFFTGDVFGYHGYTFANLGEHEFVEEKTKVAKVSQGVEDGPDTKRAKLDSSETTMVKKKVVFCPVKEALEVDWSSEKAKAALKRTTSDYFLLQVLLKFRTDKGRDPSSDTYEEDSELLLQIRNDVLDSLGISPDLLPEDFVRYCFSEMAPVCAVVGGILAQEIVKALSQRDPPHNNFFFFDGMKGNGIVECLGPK
# Experiment: SAE HTRF Enzyme Assay
# Format: biochemical
# Details: for IC50: class symbols A-C; for inhibition at 0.111 µM: compound concentration 0.111 μM, read-out: Percent Inhibition
# Outline: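 Sumoylation of Ubc9-GST by recombinant human SAE was followed by time-resolved FRET between Eu-cryptate anti-Flag and allophycocyanin anti-GST antibodies. The enzyme step used low ATP (0.5 μM) at pH 7.5 and ran 105 min at 24° C.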
Structure (SMILES),IC50 [µM],inhibition at 0.111 µM [%]
"NS(=O)(=O)OC[C@H]1C[C@@H](Nc2ncncc2C(=O)c2ccn(Cc3ccc(C(F)(F)F)o3)c2)C[C@@H]1O [Compound I-274, [(1R,2S,4R)-2-hydroxy-4-({5-[(1-{[5-(trifluoromethyl)-2-furyl]methyl}-1H-pyrrol-3-yl)carbonyl]pyrimidin-4-yl}amino)cyclopentyl]methyl sulfamate]",< 0.01,97
"NS(=O)(=O)OC[C@H]1C[C@@H](Nc2ncncc2C(=O)c2ccn(CC#CC3(O)COC3)n2)C[C@@H]1O [Compound I-275, [(1R,2S,4R)-2-hydroxy-4-{[5-({1-[3-(3-hydroxyoxetan-3-yl)prop-2-yn-1-yl]-1H-pyrazol-3-yl}carbonyl)pyrimidin-4-yl]amino}cyclopentyl]methyl sulfamate]",0.1 to 1,18
"NS(=O)(=O)OC[C@H]1C[C@@H](Nc2ncncc2C(=O)c2ccn(Cc3ccc(OC(F)(F)F)cc3)n2)C[C@@H]1O [Compound I-276, [(1R,2S,4R)-2-hydroxy-4-{[5-({1-[4-(trifluoromethoxy)benzyl]-1H-pyrazol-3-yl}carbonyl)pyrimidin-4-yl]amino}cyclopentyl]methyl sulfamate]",0.01 to 0.1,82
"Cc1ccc(Cn2ccc(C(=O)c3cncnc3N[C@@H]3C[C@H](COS(N)(=O)=O)[C@@H](O)[C@@H]3F)c2)o1 [Compound I-277, [(1R,2R,3R,4R)-3-fluoro-2-hydroxy-4-{[5-({1-[(5-methyl-2-furyl)methyl]-1H-pyrrol-3-yl}carbonyl)pyrimidin-4-yl]amino}cyclopentyl]methyl sulfamate]",< 0.01,99
"NS(=O)(=O)OC[C@H]1C[C@@H](Nc2ncncc2C(=O)c2ccn(Cc3cccc(-c4ccccc4)c3)n2)[C@H](O)[C@@H]1O [Compound I-278, {(1R,2R,3S,4R)-4-[(5-{[1-(biphenyl-3-ylmethyl)-1H-pyrazol-3-yl]carbonyl}pyrimidin-4-yl)amino]-2,3-dihydroxycyclopentyl}methyl sulfamate]",< 0.01,97
"NS(=O)(=O)OC[C@H]1C[C@@H](Nc2ncncc2C(=O)c2ccn(Cc3ccc(F)c(Br)c3)c2)C[C@@H]1O [Compound I-279, {(1R,2S,4R)-4-[(5-{[1-(3-bromo-4-fluorobenzyl)-1H-pyrrol-3-yl]carbonyl}pyrimidin-4-yl)amino]-2-hydroxycyclopentyl}methyl sulfamate]",< 0.01,98
"NS(=O)(=O)OC[C@H]1C[C@@H](Nc2ncncc2C(=O)c2ccn(Cc3ccc(Cl)s3)n2)C[C@@H]1O [Compound I-280, [(1R,2S,4R)-4-{[5-({1-[(5-chloro-2-thienyl)methyl]-1H-pyrazol-3-yl}carbonyl)pyrimidin-4-yl]amino}-2-hydroxycyclopentyl]methyl sulfamate]",< 0.01,99
"CSCn1ccc(C(=O)c2cncnc2N[C@@H]2C[C@H](COS(N)(=O)=O)[C@@H](O)C2)n1 [Compound I-281, [(1R,2S,4R)-2-hydroxy-4-{[5-({1-[(methylsulfanyl)methyl]-1H-pyrazol-3-yl}carbonyl)pyrimidin-4-yl]amino}cyclopentyl]methyl sulfamate]",0.1 to 1,25
"NS(=O)(=O)OC[C@H]1C[C@@H](Nc2ncncc2C(=O)c2ccn(Cc3cccc(Br)c3F)n2)C[C@@H]1O [Compound I-282, {(1R,2S,4R)-4-[(5-{[1-(3-bromo-2-fluorobenzyl)-1H-pyrazol-3-yl]carbonyl}pyrimidin-4-yl)amino]-2-hydroxycyclopentyl}methyl sulfamate]",< 0.01,100
"NS(=O)(=O)OC[C@H]1C[C@@H](Nc2ncncc2C(=O)c2ccn(CC(=O)c3cccc(Cl)c3)n2)[C@H](O)[C@@H]1O [Compound I-283, [(1R,2R,3S,4R)-4-{[5-({1-[2-(3-chlorophenyl)-2-oxoethyl]-1H-pyrazol-3-yl}carbonyl)pyrimidin-4-yl]amino}-2,3-dihydroxyoyclopentyl]methyl sulfamate]",< 0.01,97
"NS(=O)(=O)OC[C@H]1C[C@@H](Nc2ncncc2C(=O)c2ccn(Cc3cccc(Br)n3)n2)[C@H](O)[C@@H]1O [Compound I-284, [(1R,2R,3S,4R)-4-{[5-({1-[(6-bromopyridin-2-yl)methyl]-1H-pyrazol-3-yl}carbonyl)pyrimidin-4-yl]amino}-2,3-dihydroxycyclopentyl]methyl sulfamate]",< 0.01,100
"NS(=O)(=O)OC[C@H]1C[C@@H](Nc2ncncc2C(=O)c2ccn(Cc3csc4ccc(Cl)cc34)n2)[C@H](O)[C@@H]1O [Compound I-285, [(1R,2R,3S,4R)-4-{[5-({1-[(5-chloro-1-benzothiophen-3-yl)methyl]-1H-pyrazol-3-yl}carbonyl)pyrimidin-4-yl]amino}-2,3-dihydroxycyclopentyl]methyl sulfamate]",< 0.01,99
"NS(=O)(=O)OC[C@H]1C[C@@H](Nc2ncncc2C(=O)c2ccn(Cc3c(F)cc(F)cc3F)n2)C[C@@H]1O [Compound I-286, {(1R,2S,4R)-2-hydroxy-4-[(5-{[1-(2,4,6-trifluorobenzyl)-1H-pyrazol-3-yl]carbonyl}pyrimidin-4-yl)amino]cyclopentyl}methyl sulfamate]",< 0.01,93
"NS(=O)(=O)OC[C@H]1C[C@@H](Nc2ncncc2C(=O)c2ccn(CC#CC3CC3)n2)C[C@@H]1O [Compound I-287, {(1R,2S,4R)-4-[(5-{[1-(3-cyclopropylprop-2-yn-1-yl)-1H-pyrazol-3-yl]carbonyl}pyrimidin-4-yl)amino]-2-hydroxycyclopentyl}methyl sulfamate]",< 0.01,95
"NS(=O)(=O)OC[C@H]1C[C@@H](Nc2ncncc2C(=O)c2ccn(Cc3ccc(Cl)c(C(F)(F)F)c3)n2)C[C@@H]1O [Compound I-288, [(1R,2S,4R)-4-{[5-({1-[4-chloro-3-(trifluoromethyl)benzyl]-1H-pyrazol-3-yl}carbonyl)pyrimidin-4-yl]amino}-2-hydroxycyclopentyl]methyl sulfamate]",< 0.01,97
"NS(=O)(=O)OC[C@H]1C[C@@H](Nc2ncncc2C(=O)c2ccn(Cc3cc(Cl)ccc3Cl)n2)C[C@@H]1O [Compound I-289, {(1R,2S,4R)-4-[(5-{[1-(2,5-dichlorobenzyl)-1H-pyrazol-3-yl]carbonyl}pyrimidin-4-yl)amino]-2-hydroxycyclopentyl}methyl sulfamate]",< 0.01,98
"NS(=O)(=O)OC[C@H]1C[C@@H](Nc2ncncc2C(=O)c2ccn(Cc3ccc(F)c(Br)c3)n2)[C@H](O)[C@@H]1O [Compound I-290, {(1R,2R,3S,4R)-4-[(5-{[1-(3-bromo-4-fluorobenzyl)-1H-pyrazol-3-yl]carbonyl}pyrimidin-4-yl)amino]-2,3-dihydroxycyclopentyl}methyl sulfamate]",< 0.01,99
"C=CCn1ccc(C(=O)c2cncnc2N[C@@H]2C[C@H](COS(N)(=O)=O)[C@@H](O)C2)c1 [Compound I-291, [(1R,2S,4R)-4-({5-[(1-allyl-1H-pyrrol-3-yl)carbonyl]pyrimidin-4-yl}amino)-2-hydroxycyclopentyl]methyl sulfamate]",0.01 to 0.1,79
"NS(=O)(=O)OC[C@H]1C[C@@H](Nc2ncncc2C(=O)c2ccn(Cc3cccc(I)c3)n2)C[C@@H]1O [Compound I-292, {(1R,2S,4R)-2-Hydroxy-4-[(5-{[1-(3-iodobenzyl)-1H-pyrazol-3-yl]carbonyl}pyrimidin-4-yl)amino]cyclopentyl}methyl sulfamate]",< 0.01,98
"Cc1cc(C(=O)c2cncnc2N[C@@H]2C[C@H](COS(N)(=O)=O)[C@@H](O)[C@@H]2F)nn1Cc1cccc(I)c1 [Compound I-294, {(1R,2R,3R,4R)-3-fluoro-2-hydroxy-4-[(5-{[1-(3-iodobenzyl)-5-methyl-1H-pyrazol-3-yl]carbonyl}pyrimidin-4-yl)amino]cyclopentyl}methyl sulfamate]",< 0.01,100
"COc1cccc(Cn2ccc(C(=O)c3cncnc3N[C@@H]3C[C@H](COS(N)(=O)=O)[C@@H](O)C3)n2)n1 [Compound I-295, [(1R,2S,4R)-2-hydroxy-4-{[5-({1-[(6-methoxypyridin-2-yl)methyl]-1H-pyrazol-3-yl}carbonyl)pyrimidin-4-yl]amino}cyclopentyl]methyl sulfamate]",< 0.01,96
